Results taken from patent US11008317B2, “Triazolopyridine inhibitors of myeloperoxidase and/or EPX” (priority 2016, dated 2021).

Columns and labels:
[1] = target: T1, myeloperoxidase (Homo sapiens, UniProt P05164); test: MPO Chlorination Assay (APF Assay); type: biochemical; details: potency range class, read-out: APF Assay IC50 value
T1 sequence (P05164 49-745): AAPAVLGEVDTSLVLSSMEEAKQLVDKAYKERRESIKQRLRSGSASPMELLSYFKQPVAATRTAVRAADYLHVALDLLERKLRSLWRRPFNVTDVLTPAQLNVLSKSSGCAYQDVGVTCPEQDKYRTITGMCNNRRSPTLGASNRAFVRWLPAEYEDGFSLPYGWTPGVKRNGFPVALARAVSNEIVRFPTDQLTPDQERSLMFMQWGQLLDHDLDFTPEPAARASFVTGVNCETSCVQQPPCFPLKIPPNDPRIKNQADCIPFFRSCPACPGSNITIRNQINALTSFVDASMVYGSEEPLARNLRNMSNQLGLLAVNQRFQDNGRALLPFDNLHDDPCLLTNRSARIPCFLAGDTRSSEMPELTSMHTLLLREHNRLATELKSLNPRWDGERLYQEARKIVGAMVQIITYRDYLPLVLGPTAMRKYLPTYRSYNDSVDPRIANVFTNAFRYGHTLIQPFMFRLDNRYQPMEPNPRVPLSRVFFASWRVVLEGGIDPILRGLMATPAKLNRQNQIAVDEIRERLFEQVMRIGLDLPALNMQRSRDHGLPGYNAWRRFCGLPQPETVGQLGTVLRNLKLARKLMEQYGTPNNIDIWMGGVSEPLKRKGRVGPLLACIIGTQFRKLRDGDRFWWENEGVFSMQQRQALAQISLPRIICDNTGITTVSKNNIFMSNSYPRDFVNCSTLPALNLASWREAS

[2] = target: T1, myeloperoxidase; test: MPO Peroxidation Assay (Amplex Red Assay); type: biochemical; details: potency range class, read-out: Amplex Red Assay IC50 value

Row | SMILES | IC50 [1] [nM] | IC50 [2] [nM]
1 | Nc1cc(C(CCN[C@H]2CC[C@@H](c3ccncc3)CC2)c2ccccc2)c2nn[nH]c2n1 (some centres unmarked) [Example 141, 7-(1-phenyl-3-{[(1s,4s)-4-(pyridin-4-yl)cyclohexyl]amino}propyl)-3H-[1,2,3]triazolo [4,5-b]pyridin-5-amine] | 101 to 999 | 101 to 999
2 | Nc1cc(C(CCN[C@H]2CC[C@@H](c3ccc(Cl)cc3)CC2)c2ccccc2)c2nn[nH]c2n1 (some centres unmarked) [Example 107, 7-(1-phenyl-3-{[(1s,4s)-4-(4-chlorophenyl)cyclohexyl]amino}propyl)-3H-[1,2,3] triazolo[4,5-b] pyridin-5-amine] | 1 to 100 | 101 to 999
3 | Nc1cc([C@H](CCNC23CCC(c4ccccc4)(CC2)C(O)C3)c2ccccc2)c2nn[nH]c2n1 (stereo partly drawn) [Example 154, 4-{[(3R)-3-{5-amino-3H-[1,2,3]triazolo [4,5-b]pyridin-7-yl}-3-phenylpropyl]amino}-1-phenylbicyclo [2.2.2]octan-2-ol] | 1 to 100 | 1 to 100
4 | Nc1cc(C(CCO[C@H]2CC[C@H](c3ccccc3)CC2)c2ccccc2)c2nn[nH]c2n1 (some centres unmarked) [Example 223, 7-(1-phenyl-3-((4-phenylcyclohexyl)oxy)propyl)-3H-[1,2,3]triazolo[4,5-b]pyridin-5-amine] | 101 to 999 | 101 to 999
5 | N#Cc1ccccc1C(CCN[C@H]1CC[C@H](c2ccccc2)CC1)c1cc(N)nc2[nH]nnc12 (stereo partly drawn) [Example 161, 2-(1-{5-amino-3H-[1,2,3]triazolo [4,5-b]pyridin-7-yl}-3-{[(trans)-4-phenylcyclohexyl]amino}propyl) benzonitrile] | 101 to 999 | 1000 to 10000
6 | Nc1cc(C(CCNCCCc2ccccc2)c2ccccc2)c2nn[nH]c2n1 (centres unmarked) [Example 106, 7-{1-phenyl-3-[(3-phenylpropyl)amino]propyl}-3H-[1,2,3] triazolo[4,5-b] pyridin-5-amine] | 101 to 999 | 101 to 999
7 | Nc1cc([C@H](CCN(CC(F)F)C23CCC(c4ccccc4)(CC2)CC3)c2ccccc2)c2nn[nH]c2n1 [Example 197, 7-[(1R)-3-[(2,2-difluoroethyl)({4-phenylbicyclo[2.2.2]octan-1-yl})amino]-1-phenylpropyl]-3H-[1,2,3]triazolo[4,5-b]pyridin-5-amine] | 1 to 100 | 101 to 999
8 | Nc1cc(C(CCNC23CC4CC(CC(C4)C2)C3)c2ccccc2)c2nn[nH]c2n1 (centres unmarked) [Example 21, 7-{3-[(adamantan-1-yl)amino]-1-phenylpropyl}-3H-[1,2,3]triazolo[4,5-b]pyridin-5-amine] | 101 to 999 | 101 to 999
9 | CC(C)(C)CNCCC(c1ccccc1)c1cc(N)nc2[nH]nnc12 (centres unmarked) [Example 20, 7-{3-[(2,2-dimethylpropyl)amino]-1-phenylpropyl}-3H-[1,2,3]triazolo[4,5-b]pyridin-5-amine] | 1000 to 10000 | 101 to 999
10 | CC1C[C@@H](NCCC(c2ccccc2)c2cc(N)nc3[nH]nnc23)c2ccccc21 (stereo partly drawn) [Example 98, 7-(3-{[(1R)-3-methyl-2,3-dihydro-1H-inden-1-yl]amino}-1-phenylpropyl)-3H-[1,2,3]triazolo [4,5-b] pyridin-5-amine] | 1 to 100 | 101 to 999
11 | COc1ccc(CNCCC(c2ccccc2)c2cc(N)nc3[nH]nnc23)cc1 (centres unmarked) [Example 175, 7-(3-{[(4-methoxyphenyl)methyl]amino}-1-phenylpropyl)-3H-[1,2,3]triazolo [4,5-b]pyridin-5-amine] | 101 to 999 | 101 to 999
12 | Nc1cc(C(CCNC2c3ccccc3CC2c2ccccc2)c2ccccc2)c2nn[nH]c2n1 (centres unmarked) [Example 55, 7-{1-phenyl-3-[(2-phenyl-2,3-dihydro-1H-inden-1-yl)amino]propyl}-3H-[1,2,3] triazolo[4,5-b] pyridin-5-amine] | 101 to 999 | 1000 to 10000
13 | Nc1cc(C(CCN[C@H]2CC[C@H](c3ccc(Cl)cc3)CC2)c2ccccc2)c2nn[nH]c2n1 (stereo partly drawn) [Example 108, 7-(1-phenyl-3-{[(trans)-4-(4-chlorophenyl)cyclohexyl]amino}propyl)-3H-[1,2,3] triazolo[4,5-b] pyridin-5-amine] | 1 to 100 | 101 to 999

Other lines, results leading:

Row | IC50 [1] [nM] | IC50 [2] [nM] | SMILES
14 | 1 to 100 | 101 to 999 | Nc1cc(C(CCN[C@H]2CC[C@H](c3ccccc3)CC2)c2cccc(F)c2)c2nn[nH]c2n1 (stereo partly drawn) [Example 156, 7-[1-(3-fluorophenyl)-3-{[(trans)-4-phenylcyclohexyl]amino}propyl]-3H-[1,2,3]triazolo [4,5-b]pyridin-5-amine]
15 | 101 to 999 | 1 to 100 | Nc1cc(C(Cc2ccc(O)cc2)c2ccccc2)c2nn[nH]c2n1 (centres unmarked) [Example 229, 4-(2-(5-amino-3H-[1,2,3]triazolo[4,5-b]pyridin-7-yl)-2-phenylethyl)phenol]
16 | 101 to 999 | 101 to 999 | Nc1cc(C(CCNC2c3ccccc3CC2c2ccccc2)c2ccccc2)c2nn[nH]c2n1 (centres unmarked) [Example 46, 7-{1-phenyl-3-[(2-phenyl-2,3-dihydro-1H-inden-1-yl)amino]propyl}-3H-[1,2,3]triazolo [4,5-b]pyridin-5-amine]
17 | 1 to 100 | 101 to 999 | Nc1cc([C@H](Cc2nc3c(-c4ccccc4)cc(Cl)cc3[nH]2)c2ccccc2)c2nn[nH]c2n1 [Example 244, (R)-7-(2-(6-chloro-4-phenyl-1H-benzo[d]imidazol-2-yl)-1-phenylethyl)-3H-[1,2,3]triazolo[4,5-b]pyridin-5-amine]
18 | 101 to 999 | 101 to 999 | Nc1cc(C(CCN[C@@H]2CCc3c(Cl)cccc32)c2ccccc2)c2nn[nH]c2n1 (stereo partly drawn) [Example 65, 7-(3-{[(1R)-4-chloro-2,3-dihydro-1H-inden-1-yl]amino}-1-phenylpropyl)-3H-[1,2,3]triazolo[4,5-b]pyridin-5-amine]
19 | 1 to 100 | 101 to 999 | NCc1cccc(C(CCNC23CCC(c4ccccc4)(CC2)CC3)c2cc(N)nc3[nH]nnc23)c1 (centres unmarked) [Example 172, 7-(1-(3-(aminomethyl)phenyl)-3-((4-phenylbicyclo[2.2.2]octan-1-yl)amino)propyl)-3H-[1,2,3]triazolo[4,5-b]pyridin-5-amine]
20 | 1 to 100 | 101 to 999 | Nc1cc(C(CCNCc2ccc3ccccc3c2)c2ccccc2)c2nn[nH]c2n1 (centres unmarked) [Example 16, 7-(3-{[(naphthalen-2-yl)methyl]amino}-1-phenylpropyl)-3H-[1,2,3]triazolo[4,5-b] pyridin-5-amine]
21 | 1 to 100 | 101 to 999 | Nc1cc([C@H](CC(=O)NC23CCC(c4ccccc4)(CC2)CC3)c2ccccc2)c2nn[nH]c2n1 [Example 200, (R)-3-(5-amino-3H-[1,2,3]triazolo[4,5-b]pyridin-7-yl)-3-phenyl-N-(4-phenylbicyclo[2.2.2]octan-1-yl)propanamide]
22 | 1000 to 10000 | 101 to 999 | NCc1ccc(C(CCN[C@H]2CC[C@H](c3ccccc3)CC2)c2cc(N)nc3[nH]nnc23)cc1 (stereo partly drawn) [Example 160, 7-{1-[4-(aminomethyl)phenyl]-3-{[(trans)-4-phenylcyclohexyl]amino}propyl}-3H-[1,2,3]triazolo[4,5-b]pyridin-5-amine]
23 | 1000 to 10000 | 1000 to 10000 | Nc1cc(C(CCNC2CCC(c3cccnc3)CC2)c2ccccc2)c2nn[nH]c2n1 (centres unmarked) [Example 132, 7-(1-phenyl-3-{[4-(pyridin-3-yl)cyclohexyl]amino]propyl)-3H-[1,2,3] triazolo[4,5-b] pyridin-5-amine]
24 | 101 to 999 | 101 to 999 | CC1(NCCC(c2ccccc2)c2cc(N)nc3[nH]nnc23)CCc2ccccc21 (centres unmarked) [Example 110, 7-{3-[(1-methyl-2,3-dihydro-1H-inden-1-yl)amino]-1-phenylpropyl}-3H-[1,2,3]triazolo[4,5-b]pyridin-5-amine]
25 | 1 to 100 | 1000 to 10000 | CN(C)C(=O)CN(CC[C@H](c1ccccc1)c1cc(N)nc2[nH]nnc12)C12CCC(c3ccccc3)(CC1)CC2 [Example 192, 2-{[(3R)-3-{5-amino-3H-[1,2,3]triazolo [4,5-b]pyridin-7-yl}-3-phenylpropyl]({4-phenylbicyclo[2.2.2]octan-1-yl})amino}-N,N-dimethylacetamide]
26 | 1 to 100 | 1 to 100 | N#Cc1cccc(C(CCNC23CCC(c4ccccc4)(CC2)CC3)c2cc(N)nc3[nH]nnc23)c1 (centres unmarked) [Example 171, 7-(1-(3-cyanophenyl)-3-((4-phenylbicyclo[2.2.2]octan-1-yl)amino)propyl)-3H-[1,2,3]triazolo[4,5-b]pyridin-5-amine]
27 | 1 to 100 | 1000 to 10000 | Nc1cc(C(CCCN2CCC(c3ccccc3)c3ccccc32)c2ccccc2)c2nn[nH]c2n1 (centres unmarked) [Example 206, 7-[1-phenyl-4-(4-phenyl-1,2,3,4-tetrahydroquinolin-1-yl)butyl]-3H-[1,2,3]triazolo [4,5-b]pyridin-5-amine]
28 | 1 to 100 | 1 to 100 | Nc1cc([C@H](CCN(CC2CCO2)C23CCC(c4ccccc4)(CC2)CC3)c2ccccc2)c2nn[nH]c2n1 (stereo partly drawn) [Example 193, 7-[(1R)-3-{[(oxetan-2-yl)methyl]({4-phenylbicyclo [2.2.2]octan-1-yl})amino}-1-phenylpropyl]-3H-[1,2,3]triazolo[4,5-b]pyridin-5-amine]
